Measurements taken from BindingDB's records for doi:10.1124/mol.58.6.1375 (University of Alabama At Birmingham, 2000).

Target: T1, Gamma-aminobutyric acid receptor subunit rho-3 (Homo sapiens, UniProt A8MPY1)
T1 sequence (A8MPY1 whole entry): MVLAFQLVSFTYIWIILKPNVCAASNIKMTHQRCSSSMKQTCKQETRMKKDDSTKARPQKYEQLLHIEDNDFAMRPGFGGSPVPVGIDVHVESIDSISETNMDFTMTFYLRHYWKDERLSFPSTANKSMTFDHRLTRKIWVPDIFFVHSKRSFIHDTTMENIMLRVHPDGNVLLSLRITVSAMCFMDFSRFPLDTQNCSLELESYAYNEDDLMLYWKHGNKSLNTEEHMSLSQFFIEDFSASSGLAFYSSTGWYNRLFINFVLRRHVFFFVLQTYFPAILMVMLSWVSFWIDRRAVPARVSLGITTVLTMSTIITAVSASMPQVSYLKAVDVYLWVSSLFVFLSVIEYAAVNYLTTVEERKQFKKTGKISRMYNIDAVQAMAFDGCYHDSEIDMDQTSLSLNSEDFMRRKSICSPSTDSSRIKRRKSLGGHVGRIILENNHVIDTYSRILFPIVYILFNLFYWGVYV

Ki [nM] | SMILES
> 10000 | O=C(O)C1=CCNCC1 [1,2,3,6-Tetrahydro-pyridine-4-carboxylic acid]
580 | NCCCC(=O)O [4-amino-n-[2,3-3H]butyric acid]
360 | N[C@@H]1C(=O)N2C(C(=O)O)=C(CSc3cnn[nH]3)CS[C@H]12 [CAS_37539-03-0]

SMILES | Ki [nM]
NCc1cc(=O)[nH]o1 | 460
O=C(O)Cc1c[nH]cn1 [1H-imidazol-4-ylacetic acid] | 150
